# Laboratory results reported in patent publication US20080009418A1, “Selective Inhibitors” (Alchemia LTD., priority 2004, published 2008).
# Assays:
# Human δ-opioid (DOP) = target: T1, Human δ-opioid (DOP) (Homo sapiens, UniProt P41143); experiment: Radioligand binding, human δ-opioid (DOP) membranes, FlashPlate, [3H]-Bremazocine; conditions: compound at 10 μM; for A1 radioligand binding inhibition: human δ-opioid (DOP) membranes
# T1 construct: purchased Perkin Elmer Biosignal
# Method in brief: (§1)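 Cloned human receptor membranes were coated onto FlashPlate wells and incubated with radioligand and compound (added from a 0.5 mM DMSO daughter plate) for 1 hour at room temperature in the dark. Scintillation counting gave percent inhibition, with DMSO defining total and reference ligand defining non-specific binding.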
# Human κ-Opioid (KOP) = target: T2, Human κ-Opioid (KOP) (Homo sapiens, UniProt P41145); experiment: Radioligand binding, human κ-opioid (KOP) membranes, filtration, [3H]-Diprenorphine; conditions: compound at 10 μM; for A2 radioligand binding inhibition: human κ-opioid (KOP) membranes
# T2 construct: purchased Perkin Elmer Biosignal
# Method in brief: (§2)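 Percent inhibition of radioligand binding measured on recombinant human membranes: NK1 with [125I]-Substance P, KOP with [3H]-Diprenorphine. Incubation 1 h at room temperature, then harvest onto 0.3% PEI-soaked filters, cold Tris-HCl pH 7.4 washes and scintillation counting; non-specific binding from reference ligand wells.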
# Human Melanocortin (MC3) = target: T3, Human Melanocortin (MC3) (Homo sapiens, UniProt P41968); experiment: Radioligand binding, human melanocortin MC3 membranes, FlashPlate, [125I]-NDP-αMSH; conditions: compound at 10 μM; for A3 radioligand binding inhibition: human melanocortin MC3 membranes
# T3 construct: purchased Perkin Elmer Biosignal
# Method in brief: as §1
# Human Melanocortin (MC4) = target: T4, Human Melanocortin (MC4) (Homo sapiens, UniProt P32245); experiment: Radioligand binding, human melanocortin MC4 membranes, FlashPlate, [125I]-NDP-αMSH; conditions: compound at 10 μM; for A4 radioligand binding inhibition: human melanocortin MC4 membranes
# T4 construct: purchased Perkin Elmer Biosignal
# Method in brief: as §1
# Human melanocortin (MC5) = target: T5, Human melanocortin (MC5) (Homo sapiens, UniProt P33032); experiment: Radioligand binding, human melanocortin MC5 membranes, FlashPlate, [125I]-NDP-αMSH; conditions: compound at 10 μM; for A5 radioligand binding inhibition: human melanocortin MC5 membranes
# T5 construct: purchased Perkin Elmer Biosignal
# Method in brief: as §1
# [1] = target: T6, Human melanin-concentrating hormone (MCH1) (Homo sapiens, UniProt Q99705); experiment: Radioligand binding, human melanin-concentrating hormone MCH1 membranes, FlashPlate, [125I]-S36057; conditions: compound at 10 μM; for A6 radioligand binding inhibition: human MCH1 membranes
# T6 construct: purchased Perkin Elmer Biosignal
# Method in brief: as §1
# Human μ-opioid (MOP) = target: T7, Human μ-opioid (MOP) (Homo sapiens, UniProt P35372); experiment: Radioligand binding, human μ-opioid (MOP) membranes, FlashPlate, [3H]-Naloxone; conditions: compound at 10 μM; for A7 radioligand binding inhibition: human μ-opioid (MOP) membranes
# T7 construct: purchased Perkin Elmer Biosignal
# Method in brief: as §1
# Human neurokinin (NK1) = target: T8, Human neurokinin (NK1) (Homo sapiens, UniProt P25103); experiment: Radioligand binding, human neurokinin NK1 membranes, filtration, [125I]-Substance P; conditions: compound at 10 μM; for A8 radioligand binding inhibition: human neurokinin NK1 membranes
# T8 construct: purchased Perkin Elmer Biosignal
# Method in brief: as §2
# [2] = target: T9, Human neuropeptide Y (NPY-Y1) (Homo sapiens, UniProt P25929); experiment: Radioligand binding, human neuropeptide Y NPY-Y1 membranes, FlashPlate, [125I]-PYY; conditions: compound at 10 μM; for A9 radioligand binding inhibition: human NPY-Y1 membranes
# T9 construct: purchased Perkin Elmer Biosignal
# T9 sequence (P25929 1-384): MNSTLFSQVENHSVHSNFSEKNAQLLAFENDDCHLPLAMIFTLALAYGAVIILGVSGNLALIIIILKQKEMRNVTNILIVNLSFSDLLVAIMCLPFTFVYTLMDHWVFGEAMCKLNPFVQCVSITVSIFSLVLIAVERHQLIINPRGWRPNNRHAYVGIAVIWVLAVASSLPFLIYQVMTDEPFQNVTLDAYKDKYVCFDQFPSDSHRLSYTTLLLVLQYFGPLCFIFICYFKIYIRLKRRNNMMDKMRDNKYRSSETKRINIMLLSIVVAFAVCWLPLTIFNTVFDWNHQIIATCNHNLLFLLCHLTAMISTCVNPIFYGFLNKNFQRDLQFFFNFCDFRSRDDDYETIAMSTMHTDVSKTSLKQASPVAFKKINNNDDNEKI
# Method in brief: as §1
# Human opioid (ORL1) = target: T10, Human opioid (ORL1) (Homo sapiens, UniProt P41146); experiment: Radioligand binding, human opioid ORL1 membranes, FlashPlate, [125I]-Nociceptin; conditions: compound at 10 μM; for A10 radioligand binding inhibition: human ORL1 membranes
# T10 construct: purchased Perkin Elmer Biosignal
# Method in brief: as §1
# Mouse urotensin (mUR2) = target: T11, Mouse urotensin (mUR2) (Mus musculus, UniProt Q8VIH9); experiment: Radioligand binding, mouse urotensin mUR2 membranes, FlashPlate, [125I]-Urotensin II; conditions: compound at 10 μM; for A11 radioligand binding inhibition: mouse urotensin mUR2 membranes
# T11 construct: purchased Perkin Elmer Biosignal
# T11 sequence (Q8VIH9 1-385): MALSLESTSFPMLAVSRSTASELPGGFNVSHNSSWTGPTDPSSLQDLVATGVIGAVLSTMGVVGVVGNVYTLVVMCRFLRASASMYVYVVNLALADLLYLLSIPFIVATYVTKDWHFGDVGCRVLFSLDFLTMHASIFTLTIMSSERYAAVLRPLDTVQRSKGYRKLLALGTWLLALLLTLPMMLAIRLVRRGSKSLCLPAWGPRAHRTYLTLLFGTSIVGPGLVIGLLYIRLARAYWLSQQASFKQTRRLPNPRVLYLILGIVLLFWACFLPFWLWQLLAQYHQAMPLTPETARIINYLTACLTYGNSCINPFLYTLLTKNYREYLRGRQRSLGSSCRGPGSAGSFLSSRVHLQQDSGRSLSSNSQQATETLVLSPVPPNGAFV
# Method in brief: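 Cloned mouse urotensin (mUR2) receptor membranes from Perkin Elmer Biosignal were immobilized in FlashPlate microplates using a proprietary coating. Each well got 19.5 μl buffer, then 0.5 μl of DMSO, reference ligand, or compound. Adding 5 μl of [125I]-Urotensin II, diluted to 5× final concentration in binding buffer, started binding. Plates were sealed with TopSeal-A and incubated 1 hour at room temperature in the dark. Wells were counted for 30 seconds each on a TopCount after a 60-second delay, and percentage inhibition was calculated.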
# T3 sequence (P41968 whole entry): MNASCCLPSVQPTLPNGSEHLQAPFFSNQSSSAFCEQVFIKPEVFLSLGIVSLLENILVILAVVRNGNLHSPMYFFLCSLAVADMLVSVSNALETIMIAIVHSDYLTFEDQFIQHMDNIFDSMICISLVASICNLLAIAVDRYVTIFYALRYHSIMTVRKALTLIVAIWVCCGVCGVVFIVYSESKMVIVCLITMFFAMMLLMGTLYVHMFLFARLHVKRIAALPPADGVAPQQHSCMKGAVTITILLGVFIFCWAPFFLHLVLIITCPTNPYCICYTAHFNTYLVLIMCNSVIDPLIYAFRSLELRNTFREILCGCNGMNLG
# T6 sequence (Q99705 whole entry): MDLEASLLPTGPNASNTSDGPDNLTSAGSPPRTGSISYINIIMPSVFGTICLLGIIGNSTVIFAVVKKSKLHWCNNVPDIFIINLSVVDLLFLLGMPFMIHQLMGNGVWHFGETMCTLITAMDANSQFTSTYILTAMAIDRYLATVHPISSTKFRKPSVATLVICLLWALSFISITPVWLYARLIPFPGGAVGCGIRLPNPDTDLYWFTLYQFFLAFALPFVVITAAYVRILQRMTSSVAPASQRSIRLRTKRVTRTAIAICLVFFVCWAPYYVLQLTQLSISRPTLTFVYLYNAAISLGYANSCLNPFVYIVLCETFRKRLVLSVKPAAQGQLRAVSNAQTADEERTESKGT
# T1 sequence (P41143 whole entry): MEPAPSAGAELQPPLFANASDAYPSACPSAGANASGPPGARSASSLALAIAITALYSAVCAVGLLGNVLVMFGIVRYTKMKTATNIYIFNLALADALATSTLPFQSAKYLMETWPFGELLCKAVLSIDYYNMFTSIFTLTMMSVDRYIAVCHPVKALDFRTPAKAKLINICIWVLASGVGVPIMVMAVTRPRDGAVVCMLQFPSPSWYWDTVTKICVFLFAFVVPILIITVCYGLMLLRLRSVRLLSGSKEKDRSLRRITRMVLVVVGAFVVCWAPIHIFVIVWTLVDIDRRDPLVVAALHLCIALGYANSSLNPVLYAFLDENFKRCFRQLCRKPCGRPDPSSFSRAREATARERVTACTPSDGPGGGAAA
# T4 sequence (P32245 whole entry): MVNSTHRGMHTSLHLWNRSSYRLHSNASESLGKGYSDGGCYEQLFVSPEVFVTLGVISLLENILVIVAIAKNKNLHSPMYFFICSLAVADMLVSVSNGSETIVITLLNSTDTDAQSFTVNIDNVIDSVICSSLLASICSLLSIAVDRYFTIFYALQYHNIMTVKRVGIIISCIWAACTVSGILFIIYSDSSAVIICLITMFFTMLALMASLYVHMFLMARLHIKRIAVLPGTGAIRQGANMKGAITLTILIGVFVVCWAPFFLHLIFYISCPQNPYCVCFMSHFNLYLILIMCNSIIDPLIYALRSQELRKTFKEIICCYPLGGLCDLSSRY
# T5 sequence (P33032 whole entry): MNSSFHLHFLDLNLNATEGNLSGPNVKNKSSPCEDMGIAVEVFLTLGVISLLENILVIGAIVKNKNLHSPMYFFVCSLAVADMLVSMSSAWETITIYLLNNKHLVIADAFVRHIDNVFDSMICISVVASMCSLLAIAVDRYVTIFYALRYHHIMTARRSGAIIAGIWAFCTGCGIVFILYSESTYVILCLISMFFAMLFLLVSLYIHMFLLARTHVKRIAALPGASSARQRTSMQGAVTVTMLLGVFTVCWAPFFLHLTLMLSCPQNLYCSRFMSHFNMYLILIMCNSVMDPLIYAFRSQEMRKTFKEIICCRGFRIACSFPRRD
# T8 sequence (P25103 whole entry): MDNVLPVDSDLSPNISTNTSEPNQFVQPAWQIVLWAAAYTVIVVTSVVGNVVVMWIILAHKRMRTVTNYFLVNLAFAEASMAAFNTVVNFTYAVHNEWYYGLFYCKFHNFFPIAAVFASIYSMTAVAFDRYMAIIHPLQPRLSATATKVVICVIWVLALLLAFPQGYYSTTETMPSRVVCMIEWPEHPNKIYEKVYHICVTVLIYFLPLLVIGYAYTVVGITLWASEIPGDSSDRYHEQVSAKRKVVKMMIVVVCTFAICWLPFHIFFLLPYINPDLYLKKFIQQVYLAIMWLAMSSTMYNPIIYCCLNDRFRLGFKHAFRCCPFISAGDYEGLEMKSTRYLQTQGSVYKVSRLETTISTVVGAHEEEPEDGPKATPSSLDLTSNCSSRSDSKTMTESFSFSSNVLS
# T2 sequence (P41145 whole entry): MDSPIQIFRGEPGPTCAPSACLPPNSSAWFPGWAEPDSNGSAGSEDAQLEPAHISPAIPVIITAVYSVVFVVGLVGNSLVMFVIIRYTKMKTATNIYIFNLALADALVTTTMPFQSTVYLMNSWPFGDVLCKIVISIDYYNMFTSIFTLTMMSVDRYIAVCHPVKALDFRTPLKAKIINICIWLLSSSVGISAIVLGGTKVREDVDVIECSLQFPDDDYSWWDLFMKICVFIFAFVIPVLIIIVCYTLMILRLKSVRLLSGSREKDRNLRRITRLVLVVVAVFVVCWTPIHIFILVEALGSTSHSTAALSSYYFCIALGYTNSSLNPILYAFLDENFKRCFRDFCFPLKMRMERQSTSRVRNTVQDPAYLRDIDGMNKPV
# T7 sequence (P35372 whole entry): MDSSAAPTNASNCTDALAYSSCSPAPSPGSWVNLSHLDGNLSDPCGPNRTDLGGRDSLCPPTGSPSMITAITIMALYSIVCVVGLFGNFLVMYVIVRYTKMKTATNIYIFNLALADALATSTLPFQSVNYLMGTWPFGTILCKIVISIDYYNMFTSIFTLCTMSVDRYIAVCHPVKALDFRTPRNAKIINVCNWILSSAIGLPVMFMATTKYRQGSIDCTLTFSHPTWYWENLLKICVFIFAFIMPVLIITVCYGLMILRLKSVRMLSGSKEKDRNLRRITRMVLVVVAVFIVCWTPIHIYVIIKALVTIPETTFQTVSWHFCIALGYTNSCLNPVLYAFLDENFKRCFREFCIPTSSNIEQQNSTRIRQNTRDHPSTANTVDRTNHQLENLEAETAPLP
# T10 sequence (P41146 whole entry): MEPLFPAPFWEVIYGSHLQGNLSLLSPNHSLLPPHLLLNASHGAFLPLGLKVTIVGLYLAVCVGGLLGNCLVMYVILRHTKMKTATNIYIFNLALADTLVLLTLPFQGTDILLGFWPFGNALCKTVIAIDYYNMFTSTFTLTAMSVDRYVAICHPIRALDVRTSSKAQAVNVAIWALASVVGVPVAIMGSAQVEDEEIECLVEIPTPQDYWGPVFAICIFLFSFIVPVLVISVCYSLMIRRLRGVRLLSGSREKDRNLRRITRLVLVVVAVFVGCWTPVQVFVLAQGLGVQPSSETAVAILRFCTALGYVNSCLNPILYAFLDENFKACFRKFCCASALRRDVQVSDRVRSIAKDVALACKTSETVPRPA
SMILES,A1 radioligand binding inhibition (Human δ-opioid (DOP)),A2 radioligand binding inhibition (Human κ-Opioid (KOP)),A3 radioligand binding inhibition (Human Melanocortin (MC3)),A4 radioligand binding inhibition (Human Melanocortin (MC4)),A5 radioligand binding inhibition (Human melanocortin (MC5)),A6 radioligand binding inhibition [1],A7 radioligand binding inhibition (Human μ-opioid (MOP)),A8 radioligand binding inhibition (Human neurokinin (NK1)),A9 radioligand binding inhibition [2],A10 radioligand binding inhibition (Human opioid (ORL1)),A11 radioligand binding inhibition (Mouse urotensin (mUR2)),other results
N=C(N)NCCC(=O)N[C@H]1C(OCc2ccc(Cl)cc2)O[C@H](COCc2ccccc2)[C@@H](O)[C@@H]1OCc1ccc2ccccc2c1 (stereo partly drawn) [compound 530],,,,,,,,,,,,"A1: inhibition of radioligand binding, human δ-opioid (DOP) (Human δ-opioid (DOP); [3H]-Bremazocine): − (“−” indicates less than 50% inhibition at 10 μM); A2: inhibition of radioligand binding, human κ-opioid (KOP) (Human κ-Opioid (KOP); [3H]-Diprenorphine): + (“+” indicates greater than 50% inhibition at 10 μM); A3: inhibition of radioligand binding, human melanocortin (MC3) (Human Melanocortin (MC3); [125I]-NDP-αMSH): + (“+” indicates greater than 50% inhibition at 10 μM); A4: inhibition of radioligand binding, human melanocortin (MC4) (Human Melanocortin (MC4); [125I]-NDP-αMSH): + (“+” indicates greater than 50% inhibition at 10 μM); A5: inhibition of radioligand binding, human melanocortin (MC5) (Human melanocortin (MC5); [125I]-NDP-αMSH): + (“+” indicates greater than 50% inhibition at 10 μM); A6: inhibition of radioligand binding, human melanin-concentrating hormone (MCH1) ([1]; [125I]-S36057): + (“+” indicates greater than 50% inhibition at 10 μM); A7: inhibition of radioligand binding, human μ-opioid (MOP) (Human μ-opioid (MOP); [3H]-Naloxone): + (“+” indicates greater than 50% inhibition at 10 μM); A8: inhibition of radioligand binding, human neurokinin (NK1) (Human neurokinin (NK1); [125I]-Substance P): + (“+” indicates greater than 50% inhibition at 10 μM); A9: inhibition of radioligand binding, human neuropeptide Y (NPY-Y1) ([2]; [125I]-PYY): − (“−” indicates less than 50% inhibition at 10 μM); A10: inhibition of radioligand binding, human opioid (ORL1) (Human opioid (ORL1); [125I]-Nociceptin): + (“+” indicates greater than 50% inhibition at 10 μM); A11: inhibition of radioligand binding, mouse urotensin (mUR2) (Mouse urotensin (mUR2); [125I]-Urotensin II): − (“−” indicates less than 50% inhibition at 10 μM)"
CO[C@H]1[C@H](O)[C@@H](COCc2ccccc2)OC(OCc2ccc(-c3ccccc3)cc2)[C@@H]1NC(=O)CCCN (stereo partly drawn) [compound 60],− (“−” indicates less than 50% inhibition at 10 μM),− (“−” indicates less than 50% inhibition at 10 μM),− (“−” indicates less than 50% inhibition at 10 μM),− (“−” indicates less than 50% inhibition at 10 μM),+ (“+” indicates greater than 50% inhibition at 10 μM),− (“−” indicates less than 50% inhibition at 10 μM),− (“−” indicates less than 50% inhibition at 10 μM),− (“−” indicates less than 50% inhibition at 10 μM),− (“−” indicates less than 50% inhibition at 10 μM),− (“−” indicates less than 50% inhibition at 10 μM),− (“−” indicates less than 50% inhibition at 10 μM),
CO[C@H]1[C@H](O)[C@@H](COCc2ccc(Cl)cc2)OC(OCc2ccc(-c3ccccc3)cc2)[C@@H]1NC(=O)CCCN (stereo partly drawn) [compound 64],− (“−” indicates less than 50% inhibition at 10 μM),− (“−” indicates less than 50% inhibition at 10 μM),+ (“+” indicates greater than 50% inhibition at 10 μM),− (“−” indicates less than 50% inhibition at 10 μM),+ (“+” indicates greater than 50% inhibition at 10 μM),− (“−” indicates less than 50% inhibition at 10 μM),− (“−” indicates less than 50% inhibition at 10 μM),+ (“+” indicates greater than 50% inhibition at 10 μM),− (“−” indicates less than 50% inhibition at 10 μM),− (“−” indicates less than 50% inhibition at 10 μM),− (“−” indicates less than 50% inhibition at 10 μM),
